According to patent publication US7713994B2 (Wyeth LLC, priority 2005, dated 2010):

Target: T1, cyclin D1/cdk 4 enzyme (Homo sapiens, UniProt P11802)
T1 construct: made in house; host or cells: Sf9 insect cells, recombinant baculovirus
Experiment: CDK4 ELISA kinase assay (phospho-Rb ser 795 detection)
Type: biochemical
Conditions: In Vitro Enzyme Assay, cyclin D1/cdk 4, read-out: CDK4 IC50
Outline: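 Sf9-derived cyclin/CDK, 200 μM ATP, immobilized GST-Rb; 30° C/1 h. Detection: phospho-Ser795 Ab, HRP, TMB, OD450.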

T1 sequence (P11802 whole entry, species assumed): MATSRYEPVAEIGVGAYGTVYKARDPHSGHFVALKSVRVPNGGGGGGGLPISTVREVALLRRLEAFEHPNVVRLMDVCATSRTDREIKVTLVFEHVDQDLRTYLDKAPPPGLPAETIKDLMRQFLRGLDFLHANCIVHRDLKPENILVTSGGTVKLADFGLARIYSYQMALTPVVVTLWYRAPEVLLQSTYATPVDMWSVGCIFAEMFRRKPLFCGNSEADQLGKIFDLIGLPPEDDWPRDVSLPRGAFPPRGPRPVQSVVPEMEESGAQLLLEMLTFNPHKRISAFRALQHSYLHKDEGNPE
T1 sequence (P24385 whole entry partner, species assumed): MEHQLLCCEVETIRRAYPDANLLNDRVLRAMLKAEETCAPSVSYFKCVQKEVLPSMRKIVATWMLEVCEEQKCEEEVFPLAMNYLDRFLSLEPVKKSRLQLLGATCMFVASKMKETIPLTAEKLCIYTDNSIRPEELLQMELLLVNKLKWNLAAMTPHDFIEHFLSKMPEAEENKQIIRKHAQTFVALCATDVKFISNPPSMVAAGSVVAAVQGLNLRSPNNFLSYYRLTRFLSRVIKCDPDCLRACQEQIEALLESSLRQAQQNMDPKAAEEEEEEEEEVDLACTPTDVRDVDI

SMILES	IC50 [µM]
Cc1cccc(-c2ccc3c(c2)C(=CNc2ccc(N4CCN(C)CC4)cc2)C(=O)NC3=O)c1 [Example 693, 4-{[4-(4-Methyl-piperazin-1-yl)-phenylamino]-methylene}-6-m-tolyl-4H-isoquinoline-1,3-dione]	25.7
O=C1NC(=O)c2ccccc2C1=CNc1ccc(CN2CCCC(O)C2)cc1 (stereo not shown) [Example 615, 4-{[4-(3-Hydroxy-piperidin-1-ylmethyl)-phenylamino]-methylene}-4H-isoquinoline-1,3-dione]	25.7
NS(=O)(=O)c1ccc(CNC=C2C(=O)NC(=O)c3ccc(-c4cccc5cccnc45)cc32)cc1 [Example 633, 4-{[(1,3-Dioxo-6-quinolin-8-yl-2,3-dihydro-1H-isoquinolin-4-ylidenemethyl)-amino]-methyl}-benzenesulfonamide]	32.3
O=C1NC(=O)c2ccccc2C1=CNc1ccc(N2CCN(CCN3CCCC3)CC2)cc1 [Example 572, 4-({4-[4-(2-Pyrrolidin-1-yl-ethyl)-piperazin-1-yl]-phenylamino}-methylene)-4H-isoquinoline-1,3-dione]	37
N#CCc1ccc(NC=C2C(=O)NC(=O)c3ccc(-c4cccc5ccccc45)cc32)cc1 [Example 623, {4-[(6-Naphthalen-1-yl-1,3-dioxo-2,3-dihydro-1H-isoquinolin-4-ylidenemethyl)-amino]-phenyl)-acetonitrile]	25.1
O=C1NC(=O)c2ccc(C=CCN3CCNCC3)cc2C1=CNCc1ccc(O)c(O)c1 [Example 666, 4-[(3,4-Dihydroxy-benzylamino)-methylene]-6-(3-piperazin-1-yl-propenyl)-4H-isoquinoline-1,3-dione]	2.5
O=C1NC(=O)c2ccccc2C1=CNc1cccc(C(=O)O)c1 [Example 542, 3-[(1,3-Dioxo-2,3-dihydro-1H-isoquinolin-4-ylidenemethyl)-amino]-benzoic acid]	34.8
N#CCc1ccc(NC=C2C(=O)NC(=O)c3ccc(C=Cc4ccccc4)cc32)cc1 [Example 650, {4-[(1,3-Dioxo-6-styryl-2,3-dihydro-1H-isoquinolin-4-ylidenemethyl)-amino]-phenyl}-acetonitrile]	16.6
O=C1NC(=O)c2ccccc2C1=CNCc1cccc(NS(=O)(=O)CC(F)(F)F)c1 [Example 582, 2,2,2-Trifluoro-ethanesulfonic acid (3-{[(1,3-dioxo-2,3-dihydro-1H-isoquinolin-4-ylidenemethyl)-amino]-methyl}-phenyl)-amide]	9.6
CCN(CC)CCNC(=O)c1ccc(NC=C2C(=O)NC(=O)c3ccccc32)cc1 [Example 543, N-(2-Diethylamino-ethyl)-4-[(1,3-dioxo-2,3-dihydro-1H-isoquinolin-4-ylidenemethyl)-amino]-benzamide]	42.7
O=C(O)CCCc1ccc(NC=C2C(=O)NC(=O)c3ccccc32)cc1 [Example 558, 4-{4-[(1,3-Dioxo-2,3-dihydro-1H-isoquinolin-4-ylidenemethyl)-amino]-phenyl}-butyric acid]	27.4
N#CCc1ccc(NC=C2C(=O)NC(=O)c3ccc(C=Cc4ccccn4)cc32)cc1 [Example 648, (4-{[1,3-Dioxo-6-(2-pyridin-2-yl-vinyl)-2,3-dihydro-1H-isoquinolin-4-ylidenemethyl]-amino}-phenyl)-acetonitrile]	18.6
Nc1cccc(CNC=C2C(=O)NC(=O)c3ccccc32)c1 [Example 573, 4-[(3-Amino-benzylamino)-methylene]-4H-isoquinoline-1,3-dione]	30.6
NS(=O)(=O)c1ccc(CNC=C2C(=O)NC(=O)c3ccc(-c4ccc(C(F)(F)F)cc4)cc32)cc1 [Example 743, 4-({[1,3-Dioxo-6-(4-trifluoromethyl-phenyl)-2,3-dihydro-1H-isoquinolin-4-ylidenemethyl]-amino}-methyl)-benzenesulfonamide]	11.3
N#CCc1ccc(NC=C2C(=O)NC(=O)c3ccc(-c4cc[nH]c4)cc32)cc1 [Example 631, (4-{[1,3-Dioxo-6-(1H-pyrrol-3-yl)-2,3-dihydro-1H-isoquinolin-4-ylidenemethyl]-amino}-phenyl)-acetonitrile]	4.2
O=C1NC(=O)c2ccccc2C1=CNCc1cccc(NCC(F)(F)F)c1 [Example 603, 4-{[3-(2,2,2-Trifluoro-ethylamino)-benzylamino]-methylene}-4H-isoquinoline-1,3-dione]	48.3
O=C1NC(=O)c2ccccc2C1=CNCc1cccc(NC(=O)C2CC2)c1 [Example 586, Cyclopropanecarboxylic acid (3-{[(1,3-dioxo-2,3-dihydro-1H-isoquinolin-4-ylidenemethyl)-amino]-methyl}-phenyl)-amide]	31.3
O=C1NC(=O)c2ccccc2C1=CNCc1ccc(S(=O)(=O)NCc2cccnc2)cc1 [Example 607, 4-{[(1,3-Dioxo-2,3-dihydro-1H-isoquinolin-4-ylidenemethyl)-amino]-methyl}-N-pyridin-3-ylmethyl-benzenesulfonamide]	45.5
O=C1NC(=O)c2ccccc2C1=CNc1ccccc1OC(F)(F)F [Example 541, 4-[(2-Trifluoromethoxy-phenylamino)-methylene]-4H-isoquinoline-1,3-dione]	37.1
COc1ccccc1-c1ccc2c(c1)C(=CNc1ccc(CC#N)cc1)C(=O)NC2=O [Example 703, (4-{[6-(2-Methoxy-phenyl)-1,3-dioxo-2,3-dihydro-1H-isoquinolin-4-ylidenemethyl]-amino}-phenyl)-acetonitrile]	18.5
CSc1ccc(-c2ccc3c(c2)C(=CNc2ccc(CC#N)cc2)C(=O)NC3=O)cc1 [Example 723, (4-{[6-(4-Methylsulfanyl-phenyl)-1,3-dioxo-2,3-dihydro-1H-isoquinolin-4-ylidenemethyl]-amino}-phenyl)-acetonitrile]	12.2
CC(=O)N(C)c1ccc(NC=C2C(=O)NC(=O)c3ccccc32)cc1 [Example 554, N-{4-[(1,3-Dioxo-2,3-dihydro-1H-isoquinolin-4-ylidenemethyl)-amino]-phenyl}-N-methyl-acetamide]	36
N#CCc1ccc(NC=C2C(=O)NC(=O)c3ccc(-c4ccc(C(=O)O)cc4)cc32)cc1 [Example 707, 4-{4-[(4-Cyanomethyl-phenylamino)-methylene]-1,3-dioxo-1,2,3,4-tetrahydro-isoquinolin-6-yl}-benzoic acid]	3.8

Further lines, results first:

IC50 [µM]	SMILES
18.4	CC(C)c1ccc(-c2ccc3c(c2)C(=CNCc2ccc(S(N)(=O)=O)cc2)C(=O)NC3=O)cc1 [Example 761, 4-({[6-(4-Isopropyl-phenyl)-1,3-dioxo-2,3-dihydro-1H-isoquinolin-4-ylidenemethyl]-amino}-methyl)-benzenesulfonamide]
2.5	CN1CCN(c2ccc(NC=C3C(=O)NC(=O)c4ccc(C=CCCCCO)cc43)cc2)CC1 [Example 798, 6-(6-Hydroxy-hex-1-enyl)-4-{[4-(4-methyl-piperazin-1-yl)-phenylamino]-methylene}-4H-isoquinoline-1,3-dione]
2.5	COc1cc(-c2ccc3c(c2)C(=CNCc2ccc(O)c(O)c2)C(=O)NC3=O)cc(OC)c1OC [Example 815, 4-[(3,4-Dihydroxy-benzylamino)-methylene]-6-(3,4,5-trimethoxy-phenyl)-4H-isoquinoline-1,3-dione]
2.2	NS(=O)(=O)c1ccc(CNC=C2C(=O)NC(=O)c3ccc(-c4cccc(C=CC(=O)O)c4)cc32)cc1 [Example 760, 3-(3-{1,3-Dioxo-4-[(4-sulfamoyl-benzylamino)-methylene]-1,2,3,4-tetrahydro-isoquinolin-6-yl}-phenyl)-acrylic acid]
4.97	CN1CCN(c2ccc(NC=C3C(=O)NC(=O)c4ccc(C=Cc5ccc(CC#N)cc5)cc43)cc2)CC1 [Example 803, {4-[2-(4-{[4-(4-Methyl-piperazin-1-yl)-phenylamino]-methylene}-1,3-dioxo-1,2,3,4-tetrahydro-isoquinolin-6-yl)-vinyl]-phenyl}-acetonitrile]
48.6	NS(=O)(=O)c1ccc(CNC=C2C(=O)NC(=O)c3ccc(-c4cccc(C(F)(F)F)c4)cc32)cc1 [Example 744, 4-({[1,3-Dioxo-6-(3-trifluoromethyl-phenyl)-2,3-dihydro-1H-isoquinolin-4-ylidenemethyl]-amino}-methyl)-benzenesulfonamide]
33.6	CC(C)c1cccc(-c2ccc3c(c2)C(=CNCc2ccc(S(N)(=O)=O)cc2)C(=O)NC3=O)c1 [Example 762, 4-({[6-(3-Isopropyl-phenyl)-1,3-dioxo-2,3-dihydro-1H-isoquinolin-4-ylidenemethyl]-amino}-methyl)-benzenesulfonamide]
22.3	CN1CCN(c2ccc(NC=C3C(=O)NC(=O)c4ccc(-c5ccc(Cl)cc5Cl)cc43)cc2)CC1 [Example 811, 6-(2,4-Dichloro-phenyl)-4-{[4-(4-methyl-piperazin-1-yl)-phenylamino]-methylene}-4H-isoquinoline-1,3-dione]
1.96	CSc1ccccc1-c1ccc2c(c1)C(=CNCc1ccc(O)c(O)c1)C(=O)NC2=O [Example 793, 4-[(3,4-Dihydroxy-benzylamino)-methylene]-6-(2-methylsulfanyl-phenyl)-4H-isoquinoline-1,3-dione]
2.76	CN1CCN(c2ccc(NC=C3C(=O)NC(=O)c4ccc(-c5cccc(N)c5)cc43)cc2)CC1 [Example 810, 6-(3-Amino-phenyl)-4-{[4-(4-methyl-piperazin-1-yl)-phenylamino]-methylene}-4H-isoquinoline-1,3-dione]
0.5	CC(=O)c1ccc(-c2ccc3c(c2)C(=CNCc2ccc(S(N)(=O)=O)cc2)C(=O)NC3=O)cc1 [Example 746, 4-({[6-(4-Acetyl-phenyl)-1,3-dioxo-2,3-dihydro-1H-isoquinolin-4-ylidenemethyl]-amino}-methyl)-benzenesulfonamide]
